Results reported in PMC12867150, “A fungi-derived cyclic peptide enhances Th9-mediated antitumor immunity by targeting ZAP70 and SREBP1” (The Journal of Clinical Investigation, 2025).
“And” between values parts separate entries of the source, which are not always exact repeats. Identical values can stand only once.

Key:
endogenous CD8+ T cells = test: Flow cytometry of endogenous CD8+ T cells in spleen, LN, tumor (Figure 2F-G, S1F-I); type: in vivo, mouse; settings: for Frequencies of endogenous CD8⁺ T cells in LN: Supplemental Figure 1I left; for Number of endogenous CD8⁺ T cells in LN: Supplemental Figure 1I right; for CD8 gate number: representative flow plot
Experimental: C57BL/6 mice were subcutaneously injected with 5 × 10^5 B16-OVA melanoma cells. Five days after tumor implantation, mice received an intravenous infusion of 2 × 10^6 in vitro–differentiated Th9 cells (cultured for 5 days), which were derived from OT-II CD45.1 donor mice, accompanied by 4 × 10^5 OVA peptide–pulsed DCs via the tail vein. To enhance T cell engraftment and facilitate lymphodepletion, a single intraperitoneal injection of cyclophosphamide (200 mg/kg, Sigma, catalog C0768) was administered 1 day prior to T cell transfer. Mice were euthanized at designated time points for the collection and analysis of spleens, tumor-draining lymph nodes, and tumor tissues.
(§1) Details regarding staining panels (human and mouse), reagents (including clones and catalog numbers), acquisition settings, compensation/controls, and analysis procedures are provided in Supplemental Methods.
(§2) BioLegend, Cat. No. 422301 or Mouse TruStain FcX™, BioLegend, Cat. No. 101319) for 10 minutes at 4°C. For surface marker detection, cells were stained with fluorochrome-conjugated monoclonal antibodies in 96-well V-bottom plates and incubated on ice for 30 minutes. After staining, cells were washed twice and resuspended in FACS buffer for analysis.
(§3) Prior to intracellular cytokine staining, cells were restimulated for 4 hours with PMA (Absin, Cat. No. abs9107), ionomycin (Sigma-Aldrich, Cat. No. I0634), and brefeldin A (MedChemExpress, Cat. No. HY-16592). For intracellular cytokine staining, cells were first surface-stained as described above, then fixed and permeabilized using the BD Cytofix/Cytoperm™ kit (BD Biosciences, Cat. No. 554714) according to the manufacturer ’s protocol. Intracellular proteins were stained with directly conjugated antibodies targeting IL-9, IL-17a, IL-4, IFN-γ, TNF-α, FOXP3, p-ZAP70, Perforin, and […]
(§4) Antibodies used for mouse samples included those against IL-9 (PE, clone RM9A4, Biolegend, Cat. No. 514104), IFN-γ (PE, clone XMG1.2, Biolegend, Cat. No.
Cat. No. 103138), CD4 (APC/Cy7, clone E-AB-F1353UJ, Elabscience, Cat. No.
AF18028), CD8α (PerCP/Cy5.5, clone E-AB-F1104UJ, Elabscience, Cat. No. […]
clone E-AB-F1187UH, Elabscience, Cat. No. AF19854), TNF-α (BV421, clone MP6-XT22, Biolegend, Cat. No. 506328), FOXP3 (PE, clone FJK-16s, eBioscience, Cat. No.
Perforin (APC, clone S16009A, Biolegend, Cat. No. 154303) and Granzyme B (APC, […]
clone QA16A02, Biolegend, Cat. No. 372203). […]
Figure S1. EpA enhances immune responses. […]
I) Representative flow-cytometric plots of endogenous CD4⁺ and CD8⁺ T cells in spleens (F), LNs (G), and tumors (H); frequencies and absolute numbers of endogenous CD4⁺ (G) and CD8⁺ (I) T cells in LNs are quantified. (J and K) […]
Statistical analysis was performed using two-way ANOVA with Tukey’s post hoc test (A), one-way ANOVA with Tukey’s post hoc test (B) or two-tailed unpaired Student’s t-test (D and G–M). ns, not significant. *p < 0.05, **p < 0.01, ****p < 0.0001.
(also on this page, place not known: Mouse weight (g) CtrlEpA CtrlEpA CtrlEpA0 I CD45.1+ T cells (%) CtrlEpA CD4+ T cells (%) CtrlEpA CtrlEpA CtrlEpA FSC CD8 CD8 FSC FSC FSC BNumber of CD45.1+ T cells (×103 per mgĎ Number of CD4+ T cells (×104 per mgĎ DC (%)NK cells (%) NK cells (%) DC (%) Number of DC (×103 per mg) Number of NK cells (×105) Number of NK cells (×103 per mg) Number of DC (×105) FSC FSC FSC CD8 CtrlEpA CtrlEpA CtrlEpA CD8+ T cells (%) Number of CD8+ T cells (×104 per mgĎ nsns ns nsns ns 40 IL-6 (pg/ml)) […]

phosphorylated ZAP70 = test: Flow cytometry of phosphorylated ZAP70 in Th9 cells (Figure 5E); type: cell-based, mouse; settings: 30 minutes after activation; result in words
Experimental: as §1, §2, §3, §4
Cat. No. 103138), CD4 (APC/Cy7, clone E-AB-F1353UJ, Elabscience, Cat. No. […]

[1] = tested on: mitochondria of human Th9 CAR T cells; test: MitoTracker of human Th9 CAR T cells (S9G); type: cell-based; settings: for mitochondrial mass using Mito Tracker in human Th9 CAR-T cells: flow cytometry, Supplemental Figure 9G
Experimental: Mitochondrial mass and membrane potential were assessed using MitoTracker™ Deep Red FM (Thermo Fisher Scientific, catalog M22426) and TMRM (tetramethylrhodamine methyl ester; Macklin, catalog T868125), respectively, following the manufacturers’ protocols. Cells were incubated with the respective dyes, washed, and subjected to flow cytometry or fluorescence microscopy analysis. For ultrastructural assessment, mitochondrial number and diameter were quantified from high-resolution transmission electron microscopy (TEM) images using ImageJ software. […]
(C) Flow-cytometric analysis of infection efficiency in Th9 cells transduced with a
CD19-directed CAR lentivirus. […]
(G) Flow-cytometric analysis of mitochondrial mass using Mito Tracker in human
Th9 CAR-T c e l l s (n = 3). […]
(H) and quantification (I) (n = 5 mice per group). Statistical analysis was performed
using one-way ANOVA with Tukey’s post hoc test (A and B), or two-tailed unpaired
Student’s t-test (E–G, and I). Repeated data are presented as mean ± SEM. *p < 0.05,
(also on this page, place not known: TP cells ANOV A 30IL-9+ cells (%) Fato Fato Fato Fato A SSC GzmB CtrlEpA MFIofMitoTracker (×102) GF NormalizedATPlevel CtrlEpA 4MFI of Mito Tracker (×105) CtrlEpA0 GzmB+ cells (%) CD4 10 20 IL-9+ cells (%) Day60 10 20 30 Ctrl)

[2] = spleens, individual mice, n = 4

Substance: anteiso-C15 Leu7 surfactin [EpA]
- Frequencies of endogenous CD8⁺ T cells in LN (endogenous CD8+ T cells; LN, replicate 1): 31.6
- Frequencies of endogenous CD8⁺ T cells in LN (endogenous CD8+ T cells; LN, replicate 2): 27.8
- Frequencies of endogenous CD8⁺ T cells in LN (endogenous CD8+ T cells; LN, replicate 3): 36.5
- Frequencies of endogenous CD8⁺ T cells in LN (endogenous CD8+ T cells; LN, replicate 4): 27.9
- Number of endogenous CD8⁺ T cells in LN (endogenous CD8+ T cells; LN, replicate 1): 49988.9
- Number of endogenous CD8⁺ T cells in LN (endogenous CD8+ T cells; LN, replicate 2): 41201.1
- Number of endogenous CD8⁺ T cells in LN (endogenous CD8+ T cells; LN, replicate 3): 21505.6
- Number of endogenous CD8⁺ T cells in LN (endogenous CD8+ T cells; LN, replicate 4): 20877.6
- CD8 gate number (endogenous CD8+ T cells; LN, Figure S1G): 36.5
- CD8 gate number (endogenous CD8+ T cells; Spleen, Figure S1F): 34.5
- CD8 gate number (endogenous CD8+ T cells; Tumor, Figure S1H): 54.0
- endogenous CD8+ T cell frequency (endogenous CD8+ T cells; lymph nodes, result in words): modest frequency increase
- endogenous CD8+ T cell total numbers (endogenous CD8+ T cells; lymph nodes, result in words): unchanged total numbers
- endogenous CD8+ T cell frequency and number (endogenous CD8+ T cells; spleens and tumors, result in words): markedly increased in both frequency and absolute number
- endogenous CD8 (%) (endogenous CD8+ T cells; [2]): 30.4% and 27.2% and 30.6% and 34.5%
- number of CD8 T cells (endogenous CD8+ T cells; [2]): 3878238 and 3825743 and 3962312 and 3201124
- endogenous CD8 T cells (%) (endogenous CD8+ T cells; tumors, individual mice, n = 4): 54% and 34.7% and 36.8% and 55.2%
- number of endogenous CD8 T cells (endogenous CD8+ T cells; tumors, individual mice, n = 4): 176 and 424 and 563 and 172
- ZAP70 phosphorylation (phosphorylated ZAP70): significantly enhanced ZAP70 phosphorylation
- mitochondrial mass using Mito Tracker in human Th9 CAR-T cells ([1]; replicate 1): 3352
- mitochondrial mass using Mito Tracker in human Th9 CAR-T cells ([1]; replicate 2): 3381
- mitochondrial mass using Mito Tracker in human Th9 CAR-T cells ([1]; replicate 3): 3457
- mitochondrial potential, Th9 CAR T ([1]; result in words): elevated
